Test results: patent US7902252B2, “Inhibitors of D-amino acid oxidase” (Sepracor, Inc., priority 2007, dated 2011)

Molecular target: Human DAAO (Homo sapiens, UniProt P14920)
Test: D-Amino Acid Oxidase enzyme assay (D-serine, horseradish peroxidase/Amplex Red coupled fluorescence)
Type: biochemical
Settings: D-serine 5 mM, pH 7.4
Procedure: DAAO enzyme activity was measured using the substrate D-serine at its Michaelis-Menton Km of 5 mM. The rate of oxidation is measured as a rate of production of hydrogen peroxide, which was detected using the enzyme horseradish peroxidase (Sigma cat. No. P-8375). This coupled reaction uses the enzyme substrate Amplex Red (Molecular Probes), which is converted to the fluorescent reaction product, resorufin (excitation 530-560 nm; emission ˜590 nm). Although DAAO has a higher pH optimum, all reagents were prepared in 50 mM sodium phosphate buffer at pH 7.4 and inhibition curves were generated at this pH.
The final concentrations of components in 200 μl total volume per well (black clear-bottom 96-well plate, Costar) were:
(a) Horseradish peroxidase: 4 Units per mL
(d) Amplex Red reagent: 50 uM
The reactions were initiated by addition of DAAO enzyme and the fluorescence was monitored. H2O2 was added at 16 uM final concentration to a control well on each plate to test for compound interference with a coupled enzyme. Inhibition curves were generated in the presence of varying concentrations of the inhibitor and IC50 values were calculated for each inhibitor.

Human DAAO, sequence (P14920 whole entry): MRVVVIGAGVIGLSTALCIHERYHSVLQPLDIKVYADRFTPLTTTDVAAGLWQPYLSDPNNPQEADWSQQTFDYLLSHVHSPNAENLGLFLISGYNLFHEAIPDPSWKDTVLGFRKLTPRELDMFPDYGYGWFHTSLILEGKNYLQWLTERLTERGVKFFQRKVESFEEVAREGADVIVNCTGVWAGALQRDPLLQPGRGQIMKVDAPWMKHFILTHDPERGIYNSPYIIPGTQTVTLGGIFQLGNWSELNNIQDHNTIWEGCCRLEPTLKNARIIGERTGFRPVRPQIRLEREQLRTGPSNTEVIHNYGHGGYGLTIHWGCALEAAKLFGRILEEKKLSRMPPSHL

O=C(O)c1cc2c([nH]1)CCC2Cc1ccc(Cl)c(Cl)c1 (single isomer, unassigned) [Compound 58, 4-(3,4-dichlorobenzyl)-1,4,5,6-tetrahydrocyclopenta[b]pyrrole-2-carboxylic acid] and O=C(O)c1cc2c([nH]1)CCC2Cc1cccc(Cl)c1 (stereo not drawn) [Compound 56, 4-(3-chlorobenzyl)-1,4,5,6-tetrahydrocyclopenta[b]pyrrole-2-carboxylic acid] cannot be ordered by IC50: no more than 100 µM for the first, no more than 0.1 µM for the second.

O=C(O)c1cc2c([nH]1)CCC2Cc1ccc(Br)cc1 (single isomer, unassigned) [Compound 61, 4-(4-bromobenzyl)-1,4,5,6-tetrahydrocyclopenta[b]pyrrole-2-carboxylic acid] and CC(C)c1ccc(CC2CCc3[nH]c(C(=O)O)cc32)cc1 (stereo not drawn) [Compound 33, 4-(4-isopropylbenzyl)-1,4,5,6-tetrahydrocyclopenta[b]pyrrole-2-carboxylic acid] cannot be ordered by IC50: no more than 100 µM for the first, no more than 1 µM for the second.

COc1cccc(CC2CCc3[nH]c(C(=O)O)cc32)c1 (single isomer, unassigned) [Compound 67, 4-(3-methoxybenzyl)-1,4,5,6-tetrahydrocyclopenta[b]pyrrole-2-carboxylic acid] and COc1cccc(CC2CCc3cc(C(=O)O)[nH]c32)c1 (single isomer, unassigned) [Compound 130, 6-(3-methoxybenzyl)-1,4,5,6-tetrahydrocyclopenta[b]pyrrole-2-carboxylic acid] cannot be ordered by IC50: no more than 100 µM for the first, no more than 100 µM for the second.

O=C(O)c1cc2c([nH]1)CCC2Cc1ccc2ccccc2c1 (single isomer, unassigned) [Compound 79, 4-(naphthalen-2-ylmethyl)-1,4,5,6-tetrahydrocyclopenta[b]pyrrole-2-carboxylic acid] and O=C(O)c1cc2c([nH]1)CCC2Cc1ccccc1 (stereo not drawn) [Compound 17, 4-benzyl-1,4,5,6-tetrahydrocyclopenta[b]pyrrole-2-carboxylic acid] cannot be ordered by IC50: no more than 1 µM for the first, no more than 0.1 µM for the second.

O=C(O)c1cc2c([nH]1)CCC2Cc1cccc(-c2ccco2)c1 (single isomer, unassigned) [Compound 88, 4-(3-(furan-2-yl)benzyl)-1,4,5,6-tetrahydrocyclopenta[b]pyrrole-2-carboxylic acid] and O=C(O)c1cc2c([nH]1)CCC2Cc1cccc(-c2ccc[nH]2)c1 (single isomer, unassigned) [Compound 92, 4-(3-(1H-pyrrol-2-yl)benzyl)-1,4,5,6-tetrahydrocyclopenta[b]pyrrole-2-carboxylic acid] cannot be ordered by IC50: no more than 100 µM for the first, no more than 100 µM for the second.

O=C(O)c1cc2c([nH]1)CCC2c1cccc(F)c1 (single isomer, unassigned) [Compound 95, 4-(3-fluorophenyl)-1,4,5,6-tetrahydrocyclopenta[b]pyrrole-2-carboxylic acid] and O=C(O)c1cc2c([nH]1)CCC2c1cc(F)cc(F)c1 (single isomer, unassigned) [Compound 99, 4-(3,5-difluorophenyl)-1,4,5,6-tetrahydrocyclopenta[b]pyrrole-2-carboxylic acid] cannot be ordered by IC50: no more than 100 µM for the first, no more than 100 µM for the second.

O=C(O)c1cc2c([nH]1)C(c1ccc(-c3ccccc3)cc1)CC2 (single isomer, unassigned) [Compound 119, 6-(biphenyl-4-yl)-1,4,5,6-tetrahydrocyclopenta[b]pyrrole-2-carboxylic acid] and O=C(O)c1cc2c([nH]1)C(Cc1ccccc1)CC2 (stereo not drawn) [Compound 26, 6-benzyl-1,4,5,6-tetrahydrocyclopenta[b]pyrrole-2-carboxylic acid] cannot be ordered by IC50: no more than 1 µM for the first, no more than 0.1 µM for the second.

Going from O=C(O)c1cc2c([nH]1)C(c1ccc(-c3ccccc3)cc1)CC2 (single isomer, unassigned) [Compound 120, 6-(biphenyl-4-yl)-1,4,5,6-tetrahydrocyclopenta[b]pyrrole-2-carboxylic acid] to O=C(O)c1cc2c([nH]1)C(CCc1ccccc1)CC2 (stereo not drawn) [Compound 27, 6-phenethyl-1,4,5,6-tetrahydrocyclopenta[b]pyrrole-2-carboxylic acid], the IC50 falls from greater than 100 µM to no more than 1 µM. The second is the more potent here.

O=C(O)c1cc2c([nH]1)C(Cc1cccc(Cl)c1)CC2 (single isomer, unassigned) [Compound 122, 6-(3-chlorobenzyl)-1,4,5,6-tetrahydrocyclopenta[b]pyrrole-2-carboxylic acid] and O=C(O)c1cc2c([nH]1)C(Cc1cccc(Br)c1)CC2 (single isomer, unassigned) [Compound 126, 6-(3-bromobenzyl)-1,4,5,6-tetrahydrocyclopenta[b]pyrrole-2-carboxylic acid] cannot be ordered by IC50: no more than 1 µM for the first, no more than 100 µM for the second.

O=C(O)c1cc2c([nH]1)C(Cc1cccc(Br)c1)CC2 (single isomer, unassigned) [Compound 127, 6-(3-bromobenzyl)-1,4,5,6-tetrahydrocyclopenta[b]pyrrole-2-carboxylic acid] and O=C(O)c1cc2c([nH]1)C(CCCc1ccccc1)CC2 (single isomer, unassigned) [Compound 135, 6-(3-phenylpropyl)-1,4,5,6-tetrahydrocyclopenta[b]pyrrole-2-carboxylic acid] cannot be ordered by IC50: no more than 0.1 µM for the first, no more than 100 µM for the second.

O=C(O)c1cc2c([nH]1)C(CCCc1ccccc1)CC2 (single isomer, unassigned) [Compound 136, 6-(3-phenylpropyl)-1,4,5,6-tetrahydrocyclopenta[b]pyrrole-2-carboxylic acid] and O=C(O)c1cc2c([nH]1)CCC2CCCc1ccccc1 (stereo not drawn) [Compound 36, 4-(3-phenylpropyl)-1,4,5,6-tetrahydrocyclopenta[b]pyrrole-2-carboxylic acid] cannot be ordered by IC50: no more than 1 µM for the first, no more than 1 µM for the second.

O=C(O)c1cc2c([nH]1)CC1CC21 (single isomer, unassigned) [Compound 139, 1a,4,5,5a-tetrahydro-1H-4-aza-cyclopropa[α]pentalene-3-carboxylic acid] and CC1Cc2cc(C(=O)O)[nH]c2C1 (stereo not drawn) [Compound 22, 5-methyl-1,4,5,6-tetrahydrocyclopenta[b]pyrrole-2-carboxylic acid] cannot be ordered by IC50: no more than 1 µM for the first, no more than 1 µM for the second.

O=C(O)c1cc2c([nH]1)CCC2=O [Compound 2, 4-oxo-1,4,5,6-tetrahydrocyclopenta[b]pyrrole-2-carboxylic acid] and O=C(O)c1cc2c([nH]1)C(=O)CC2 [Compound 24, 6-oxo-1,4,5,6-tetrahydro-cyclopenta[b]pyrrole-2-carboxylic acid] cannot be ordered by IC50: no more than 100 µM for the first, no more than 1 µM for the second.

CC(C)(C)c1c(C(=O)O)[nH]c2c1C(=O)CC2 [Compound 3, 3-tert-butyl-4-oxo-1,4,5,6-tetrahydrocyclopenta[b]pyrrole-2-carboxylic acid] and Cc1c(C(=O)O)[nH]c2c1C(=O)CCC2 [Compound 31, 3-methyl-4-oxo-4,5,6,7-tetrahydro-1H-indole-2-carboxylic acid] cannot be ordered by IC50: greater than 100 µM for the first, no more than 100 µM for the second.

CC(C)C1CCc2[nH]c(C(=O)O)cc21 (stereo not drawn) [Compound 10, 4-isopropyl-1,4,5,6-tetrahydrocyclopenta[b]pyrrole-2-carboxylic acid] and CC(C)CC1CCc2[nH]c(C(=O)O)cc21 (stereo not drawn) [Compound 11, 4-isobutyl-1,4,5,6-tetrahydrocyclopenta[b]pyrrole-2-carboxylic acid] cannot be ordered by IC50: no more than 1 µM for the first, no more than 1 µM for the second.

O=C(O)c1cc2c([nH]1)CCC2CC1CCCCC1 (stereo not drawn) [Compound 12, 4-(cyclohexylmethyl)-1,4,5,6-tetrahydrocyclopenta[b]pyrrole-2-carboxylic acid] and O=C(O)c1cc2c([nH]1)CCC2CC(F)(F)F (stereo not drawn) [Compound 38, 4-(2,2,2-trifluoroethyl)-1,4,5,6-tetrahydrocyclopenta[b]pyrrole-2-carboxylic acid] cannot be ordered by IC50: no more than 1 µM for the first, no more than 100 µM for the second.

O=C(O)c1cc2c([nH]1)CC/C2=C\c1ccc(F)cc1 [Compound 13, (E)-4-(4-fluorobenzylidene)-1,4,5,6-tetrahydrocyclopenta[b]pyrrole-2-carboxylic acid] and Cc1ccc(C2CCc3[nH]c(C(=O)O)cc32)cc1 (stereo not drawn) [Compound 37, 4-p-tolyl-1,4,5,6-tetrahydrocyclopenta[b]pyrrole-2-carboxylic acid] cannot be ordered by IC50: no more than 100 µM for the first, no more than 1 µM for the second.

O=C(O)c1cc2c([nH]1)CC(F)(F)C2 [Compound 21, 5,5-difluoro-1,4,5,6-tetrahydrocyclopenta[b]pyrrole-2-carboxylic acid] and O=C(O)c1cc2c([nH]1)CCCC2 [Compound 30, 4,5,6,7-tetrahydro-1H-indole-2-carboxylic acid] cannot be ordered by IC50: no more than 1 µM for the first, no more than 1 µM for the second.

O=C(O)c1cc2c([nH]1)CC(Cc1ccccc1)C2 (stereo not drawn) [Compound 23, 5-benzyl-1,4,5,6-tetrahydrocyclopenta[b]pyrrole-2-carboxylic acid] and O=C(O)c1cc2c([nH]1)CCCC2Cc1ccccc1 (stereo not drawn) [Compound 32, 4-benzyl-4,5,6,7-tetrahydro-1H-indole-2-carboxylic acid] cannot be ordered by IC50: no more than 100 µM for the first, no more than 100 µM for the second.

COc1ccc(CCC2CCc3[nH]c(C(=O)O)cc32)cc1 (stereo not drawn) [Compound 34, 4-(4-methoxyphenethyl)-1,4,5,6-tetrahydrocyclopenta[b]pyrrole-2-carboxylic acid] and COc1ccc(CC2CCc3[nH]c(C(=O)O)cc32)cc1OC (stereo not drawn) [Compound 69, 4-(3,4-dimethoxybenzyl)-1,4,5,6-tetrahydrocyclopenta[b]pyrrole-2-carboxylic acid] cannot be ordered by IC50: no more than 100 µM for the first, no more than 1 µM for the second.

CC(C)(CC1CCc2[nH]c(C(=O)O)cc21)c1ccccc1 (stereo not drawn) [Compound 35, 4-(2-methyl-2-phenylpropyl)-1,4,5,6-tetrahydrocyclopenta[b]pyrrole-2-carboxylic acid] and O=C(O)c1cc2c([nH]1)CCC2Cc1cc(F)cc(Cl)c1 (stereo not drawn) [Compound 55, 4-(3-chloro-5-fluorobenzyl)-1,4,5,6-tetrahydrocyclopenta[b]pyrrole-2-carboxylic acid] cannot be ordered by IC50: no more than 100 µM for the first, no more than 0.1 µM for the second.
